Laboratory results: patent US10542757B2, “Compositions comprising a biological control agent and an insecticide” (priority 2012, dated 2020)

Legend:
Assay type in all cases: in vivo
[1] = test system: green peach aphid (Myzus persicae); experiment: Myzus persicae spray test (MYZUPE); conditions: mortality, Chinese cabbage leaf-disks sprayed
Description: (§1) For all examples efficiencies of the compositions comprising at least one BCA and at least one specific insecticide has been determined by the “Colby-formula”: The expected efficacy of a given combination of two compounds is calculated as follows (see Colby, S. R., “Calculating Synergistic and antagonistic Responses of Herbicide Combinations”, Weeds 15, pp. 20-22, 1967):
(§2) • X is the efficacy expressed in % mortality of the untreated control for test compound A at a concentration of m ppm respectively m g/ha, • Y is the efficacy expressed in % mortality of the untreated control for test compound B at a concentration of n ppm respectively n g/ha, • E is the efficacy expressed in % mortality of the untreated control using the mixture of A and B at m and n ppm respectively m and n g/ha, then
(§3) If the observed insecticidal efficacy of the combination is higher than the one calculated as “E”, then the combination of the two compounds is more than additive, i.e., there is a synergistic effect.
(§4) To produce a suitable preparation of active compound, 1 part by weight of active compound is mixed with the stated amount of solvent and emulsifier, and the concentrate is diluted with emulsifier-containing water to the desired concentration. To produce a suitable preparation of a spore suspension the spores are diluted with emulsifier-containing water to the desired concentration.
Chinese cabbage (Brassica pekinensis) leaf-disks infected with all instars of the green peach aphid (Myzus persicae), are sprayed with a preparation of the active ingredient of the desired concentration.
After the specified period of time, mortality in % is determined. 100% means all aphids have been killed; 0% means none of the aphids have been killed. The mortality values determined thus are recalculated using the Colby-formula (see above).

[2] = test system: larvae of the diamondback moth (Plutella xylostella); experiment: Plutella xylostella spray test; conditions: mortality, cabbage leaves sprayed, 0.05 ppm
Description: as §1, §2, §3
(§5) To produce a suitable preparation of active compound, 1 part by weight of active compound is mixed with the stated amount of solvent and emulsifier, and the concentrate is diluted with emulsifier-containing water to the desired concentration. […]
After the specified period of time, the mortality in % is determined. […] The mortality values determined thus are recalculated using the Colby-formula (see above).

[3] = test system: mustard beetle larvae (Phaedon cochleariae); experiment: Phaedon cochleariae spray test; conditions: mortality, Chinese cabbage leaf-disks sprayed
Description: as §1, §2, §3, §4
Chinese cabbage (Brassica pekinensis) leaf-disks are sprayed with a preparation of the active ingredient of the desired concentration. Once dry, the leaf disks are infested with mustard beetle larvae (Phaedon cochleariae).
After the specified period of time, mortality in % is determined. 100% means all beetle larvae have been killed and 0% means none of the beetle larvae have been killed. The mortality values determined thus are recalculated using the Colby-formula (see above).

[4] = test system: two spotted spidermite (Tetranychus urticae); experiment: Tetranychus urticae spray test, OP-resistant; conditions: mortality, French beans sprayed, 20 g ai/ha
Description: as §1, §2, §3, §5
(§6) After the specified period of time, mortality in % is determined. […] The mortality values determined thus are recalculated using the Colby-formula (see above).

[5] = test system: fall armyworm larvae (Spodoptera frugiperda); experiment: Spodoptera frugiperda spray test; conditions: mortality, maize leaf sections sprayed, 0.8 g ai/ha
Description: as §1, §2, §3
To produce a suitable preparation of the active compound, 1 part by weight of active compound is mixed with the stated amount of solvent and emulsifier, and the concentrate is diluted with emulsifier-containing water to the desired concentration. […]
as §6

[6] = test system: caterpillars of the beet army worm (Spodoptera exigua); experiment: Spodoptera exigua spray test; conditions: mortality, cotton leaves sprayed, 0.1 ppm
Description: as §1, §2, §3, §5, §6

| SMILES | Efficacy in % after 6d ([1]; 4 g/ha) | Efficacy in % after 3d [2] | Efficacy in % after 6d ([3]; 0.16 g ai/ha) | Efficacy in % after 6d ([3]; 0.8 g ai/ha) | Efficacy in % after 6d ([1]; 0.16 g/ha) | Efficacy in % after 6d [4] | Efficacy in % after 6d ([1]; 100 g/ha) | Efficacy in % after 2d ([5]; 2 d) | Efficacy in % after 6d ([5]; 6 d) | Efficacy in % after 2d ([3]; 100 g ai/ha, 2 d) | Efficacy in % after 3d [6] |
| --- | --- | --- | --- | --- | --- | --- | --- | --- | --- | --- | --- |
| CNC(=O)c1cc(Cl)cc(C)c1NC(=O)c1cc(Br)nn1-c1ncccc1Cl [Chlorantraniliprole (I231), Chlorantraniliprole] | 0% | 30% | 0% | 0% |  |  |  |  |  |  |  |
| CNC(=O)c1cc(C#N)cc(C)c1NC(=O)c1cc(Br)nn1-c1ncccc1Cl [Cyantraniliprole (I232), Cyantraniliprole] |  |  |  | 33% | 0% | 0% |  |  |  |  |  |
| Cc1cc(C(F)(C(F)(F)F)C(F)(F)F)ccc1NC(=O)c1cccc(I)c1C(=O)NC(C)(C)CS(C)(=O)=O [Flubendiamide (I233), Flubendiamide] |  |  |  |  |  |  | 0% | 0% | 0% | 0% | 30% |
